Test results published in patent publication US20240238423A9, “TETRAHYDROISOQUINOLINE HETEROBIFUNCTIONAL BCL-XL DEGRADERS” (Treeline Biosciences, Inc., priority 2022, published 2024).
Read-outs that look alike come from different tables or passages of the source.

Biological target: T1, Human BCL-XL protein (N-terminal HiBiT tagged BCL-XL in HT1080 cells) (Homo sapiens, UniProt Q07817)
T1 construct: expressed in transfected cells; host or cells: HT-1080 (ATCC CCL-121), stably transduced with lentivirus pLV-UBC-N-HiBiT-BCL-XL-PGK-puro and selected with puromycin
T1 sequence (Q07817 whole entry): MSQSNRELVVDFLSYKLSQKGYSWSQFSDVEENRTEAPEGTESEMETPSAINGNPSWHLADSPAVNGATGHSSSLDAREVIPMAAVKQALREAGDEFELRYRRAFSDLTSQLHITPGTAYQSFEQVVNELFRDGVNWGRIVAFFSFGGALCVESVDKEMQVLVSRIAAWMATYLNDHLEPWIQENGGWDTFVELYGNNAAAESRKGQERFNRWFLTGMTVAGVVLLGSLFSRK
Assay: HiBiT based degradation assay
Type: cell-based
Details: HT1080 cells expressing HiBiT-BCL-XL; for Ymin (6 h) / Ymin (24 h): BCL-XL degradation normalized with DMSO control; for DC50: BCL-XL degradation
Text: Human BCL-XL protein coding open reading frame fused with N-terminal HiBiT coding sequence was synthesized from Integrated DNA Technologies (IDT). Next, N-HiBiT-BCL-XL sequence was cloned into pLV-UBC-PGK-Puro, a lentivirus plasmid purchased from Vectorbuilder, to generate pLV-UBC-N-HiBiT-BCL-XL-PGK-puro. Lentiviral particles were generated from Lenti-X™ 293T cells (Clontech) by co-transfection of pLV-UBC-N-HiBiT-BCL-XL-PGK-puro plasmids and lentiviral packaging plasmid mix (Cellecta). HT-1080 [HT1080](ATCC CCL-121) cells were infected with the lentivirus, and HT1080 cells stably integrated with the lentiviral vectors were established by incubation with 1 μg/mL puromycin (Thermofisher).
HT1080 cells expressing N-terminal HiBiT tagged BCL-XL were dispensed into a 384-well plate pre-spotted with compounds at varying concentrations. Three thousand cells were seeded into each well in 40 μL of RPMI 1640 media. […] After incubation, luminescence was read on a PHERAstar FSX Plate Reader (BMG). BCL-XL degradation at each indicated concentration was normalized with the DMSO control. The BCL-XL degradation curves were plotted using a four-parameter logistic model. For compounds displaying hook effects, the curve fitting was performed using the bottom point of the hook curves (i.e., the point of Ymin) as the bottom plateau to calculate EC50.

| Ymin (6 h) | Ymin (24 h) | DC50 (6 h, read-out: EC50 (6 h)) [nM] | DC50 (24 h, read-out: EC50 (24 h)) [nM] | SMILES |
| --- | --- | --- | --- | --- |
| B (50% ≤ Ymin < 70%) | A (Ymin < 50%) | < 100 | < 100 | Cc1cc(OCCCN2C[C@@H](C)N(CC(=O)N3CCN(c4cccc5c(C6CCC(=O)NC6=O)nn(C)c45)CC3)[C@@H](C)C2)ccc1-c1ccc(N2CCc3cccc(C(=O)Nc4nc5ccccc5s4)c3C2)nc1C(=O)O (stereo partly drawn) [Compound 183a, 6-[8-(1,3-benzothiazol-2-ylcarbamoyl)-3,4-dihydro-1H-isoquinolin-2-yl]-3-[4-[3-[(3S,5R)-4-[2-[4-[3-(2,6-dioxo-3-piperidyl)-1-methyl-indazol-7-yl]piperazin-1-yl]-2-oxo-ethyl]-3,5-dimethyl-piperazin-1-yl]propoxy]-2-methyl-phenyl]pyridine-2-carboxylic acid] |
| B (50% ≤ Ymin < 70%) | A (Ymin < 50%) | 1000 to 10000 | 1000 to 10000 | Cc1c(Oc2ccc(CC(F)(F)CN3CCN(c4cccc5c(C6CCC(=O)NC6=O)nn(C)c45)CC3)cc2)cccc1-c1ccc(N2CCc3cccc(C(=O)Nc4nc5ccccc5s4)c3C2)nc1C(=O)O (stereo not drawn) [Compound 201, 6-[8-(1,3-benzothiazol-2-ylcarbamoyl)-3,4-dihydro-1H-isoquinolin-2-yl]-3-[3-[4-[3-[4-[3-(2,6-dioxo-3-piperidyl)-1-methyl-indazol-7-yl]piperazin-1-yl]-2,2-difluoro-propyl]phenoxy]-2-methyl-phenyl]pyridine-2-carboxylic acid] |
| – | B (50% ≤ Ymin < 70%) | – | < 100 | Cc1c(Oc2ccc(CCCCN3CCN(c4cccc5c(C6CCC(=O)NC6=O)nn(C)c45)CC3)cc2)cccc1-c1ccc(N2CCc3cccc(C(=O)Nc4nc5ccccc5s4)c3C2)nc1C(=O)O (stereo not drawn) [Compound 175, 6-(8-(benzo[d]thiazol-2-ylcarbamoyl)-3,4-dihydroisoquinolin-2(1H)-yl)-3-(3-(4-(4-(4-(3-(2,6-dioxopiperidin-3-yl)-1-methyl-1H-indazol-7-yl)piperazin-1-yl)butyl)phenoxy)-2-methylphenyl)picolinic acid] |
| C (Ymin ≥ 70%) | C (Ymin ≥ 70%) | 1000 to 10000 | < 100 | Cc1c(OCCC[C@H]2CCCN(CC(=O)Nc3cccc4c(C5CCC(=O)NC5=O)nn(C)c34)C2)cccc1-c1ccc(N2CCc3cccc(C(=O)Nc4nc5ccccc5s4)c3C2)nc1C(=O)O (single isomer, unassigned) [Compound 210b] |
| – | A (Ymin < 50%) | – | < 100 | Cc1c(O[C@H]2CC[C@H](CCCN3CCN(c4ccc5c(C6CCC(=O)NC6=O)nn(C)c5c4)C[C@@H]3C)CC2)cccc1-c1ccc(N2CCc3cccc(C(=O)Nc4nc5ccccc5s4)c3C2)nc1C(=O)O (stereo partly drawn) [Compound 273b, 6-(8-(benzo[d]thiazol-2-ylcarbamoyl)-3,4-dihydroisoquinolin-2(1H)-yl)-3-(3-(((1R,4r)-4-(3-((2S)-4-(3-(2,6-dioxopiperidin-3-yl)-1-methyl-1H-indazol-6-yl)-2-methylpiperazin-1-yl)propyl)cyclohexyl)oxy)-2-methylphenyl)picolinic acid] |
| – | A (Ymin < 50%) | – | < 100 | Cc1c(O[C@H]2CC[C@H](CCCCN3CCN(c4ccc5c(C6CCC(=O)NC6=O)nn(C)c5c4)[C@H](C)C3)CC2)cccc1-c1ccc(N2CCc3cccc(C(=O)Nc4nc5ccccc5s4)c3C2)nc1C(=O)O (stereo partly drawn) [Compound 300a, 6-(8-(benzo[d]thiazol-2-ylcarbamoyl)-3,4-dihydroisoquinolin-2(1H)-yl)-3-(3-(((1s,4r)-4-(4-((3R)-4-(3-(2,6-dioxopiperidin-3-yl)-1-methyl-1H-indazol-6-yl)-3-methylpiperazin-1-yl)butyl)cyclohexyl)oxy)-2-methylphenyl)picolinic acid] |
| – | B (50% ≤ Ymin < 70%) | – | < 100 | Cc1c(OCC[C@@H]2CCCN(CC(=O)Nc3ccc4c(C5CCC(=O)NC5=O)nn(C)c4c3)C2)cccc1-c1ccc(N2CCc3cccc(C(=O)Nc4nc5ccccc5s4)c3C2)nc1C(=O)O (stereo partly drawn) [Compound 180a, 6-(8-(benzo[d]thiazol-2-ylcarbamoyl)-3,4-dihydroisoquinolin-2(1H)-yl)-3-(3-(2-((3S)-1-(2-((3-(2,6-dioxopiperidin-3-yl)-1-methyl-1H-indazol-6-yl)amino)-2-oxoethyl)piperidin-3-yl)ethoxy)-2-methylphenyl)picolinic acid] |
| – | B (50% ≤ Ymin < 70%) | – | < 100 | Cc1c(O[C@H]2CC[C@H](CCCC3CCN(c4ccc5c(C6CCC(=O)NC6=O)nn(C)c5c4)CC3)CC2)cccc1-c1ccc(N2CCc3cccc(C(=O)Nc4nc5ccccc5s4)c3C2)nc1C(=O)O (stereo partly drawn) [Compound 311b, 6-(8-(benzo[d]thiazol-2-ylcarbamoyl)-3,4-dihydroisoquinolin-2(1H)-yl)-3-(3-(((1s,4r)-4-(3-(1-(3-(2,6-dioxopiperidin-3-yl)-1-methyl-1H-indazol-6-yl)piperidin-4-yl)propyl)cyclohexyl)oxy)-2-methylphenyl)picolinic acid] |
| – | A (Ymin < 50%) | – | < 100 | Cc1c(O[C@H]2CC[C@H](CCCCN3CCN(c4ccc5c(C6CCC(=O)NC6=O)nn(C)c5c4)C[C@H]3C(F)(F)F)CC2)cccc1-c1ccc(N2CCc3cccc(C(=O)Nc4nc5ccccc5s4)c3C2)nc1C(=O)O (stereo partly drawn) [Compound 346b, 6-(8-(benzo[d]thiazol-2-ylcarbamoyl)-3,4-dihydroisoquinolin-2(1H)-yl)-3-(3-(((1r,4r)-4-(4-((2S)-4-(3-(2,6-dioxopiperidin-3-yl)-1-methyl-1H-indazol-6-yl)-2-(trifluoromethyl)piperazin-1-yl)butyl)cyclohexyl)oxy)-2-methylphenyl)picolinic acid] |
| – | B (50% ≤ Ymin < 70%) | – | < 100 | Cc1c(OCCCN2CCN(CC(=O)Nc3cccc4c(C5CCC(=O)NC5=O)nn(C)c34)C[C@H]2C(F)(F)F)cccc1-c1ccc(N2CCc3cccc(C(=O)Nc4nc5ccccc5s4)c3C2)nc1C(=O)O (stereo partly drawn) [Compound 246b, 6-(8-(benzo[d]thiazol-2-ylcarbamoyl)-3,4-dihydroisoquinolin-2(1H)-yl)-3-(3-(3-((2S)-4-(2-((3-(2,6-dioxopiperidin-3-yl)-1-methyl-1H-indazol-7-yl)amino)-2-oxoethyl)-2-(trifluoromethyl)piperazin-1-yl)propoxy)-2-methylphenyl)picolinic acid] |
| – | A (Ymin < 50%) | – | < 100 | Cc1c(O[C@H]2CC[C@H](CCCCN3CCC(c4ccc5c(C6CCC(=O)NC6=O)nn(C)c5c4)CC3)CC2)cccc1-c1ccc(N2CCc3cccc(C(=O)Nc4nc5ccccc5s4)c3C2)nc1C(=O)O (stereo partly drawn) [Compound 299a, 6-(8-(benzo[d]thiazol-2-ylcarbamoyl)-3,4-dihydroisoquinolin-2(1H)-yl)-3-(3-(((1s,4r)-4-(4-(4-(3-(2,6-dioxopiperidin-3-yl)-1-methyl-1H-indazol-6-yl)piperidin-1-yl)butyl)cyclohexyl)oxy)-2-methylphenyl)picolinic acid] |
| – | A (Ymin < 50%) | – | < 100 | Cc1c(O[C@H]2CC[C@H](CCCN3CCC(Oc4ccc5c(C6CCC(=O)NC6=O)nn(C)c5c4)CC3)CC2)cccc1-c1ccc(N2CCc3cccc(C(=O)Nc4nc5ccccc5s4)c3C2)nc1C(=O)O (stereo partly drawn) [Compound 337a, 6-(8-(benzo[d]thiazol-2-ylcarbamoyl)-3,4-dihydroisoquinolin-2(1H)-yl)-3-(3-(((1s,4r)-4-(3-(4-((3-(2,6-dioxopiperidin-3-yl)-1-methyl-1H-indazol-6-yl)oxy)piperidin-1-yl)propyl)cyclohexyl)oxy)-2-methylphenyl)picolinic acid] |
| A (Ymin < 50%) | A (Ymin < 50%) | < 100 | < 100 | Cc1c(OCCCC2CCN(CC(=O)Nc3ccc4c(C5CCC(=O)NC5=O)nn(C)c4c3)CC2)cccc1-c1ccc(N2CCc3cccc(C(=O)Nc4nc5ccccc5s4)c3C2)nc1C(=O)O (stereo not drawn) [Compound 121, 6-(8-(Benzo[d]thiazol-2-ylcarbamoyl)-3,4-dihydroisoquinolin-2(1H)-yl)-3-(3-(3-(1-(2-((3-(2,6-dioxopiperidin-3-yl)-1-methyl-1H-indazol-6-yl)amino)-2-oxoethyl)piperidin-4-yl)propoxy)-2-methylphenyl)picolinic acid] |

| SMILES | Ymin (6 h) | Ymin (24 h) | DC50 (6 h, read-out: EC50 (6 h)) [nM] | DC50 (24 h, read-out: EC50 (24 h)) [nM] |
| --- | --- | --- | --- | --- |
| Cc1c(OCCCC[C@@H]2CCCN(CC(=O)Nc3cccc4c(C5CCC(=O)NC5=O)nn(C)c34)C2)cccc1-c1ccc(N2CCc3cccc(C(=O)Nc4nc5ccccc5s4)c3C2)nc1C(=O)O (stereo partly drawn) [Compound 186a, 6-[8-(1,3-benzothiazol-2-ylcarbamoyl)-3,4-dihydro-1H-isoquinolin-2-yl]-3-[3-[4-[(3R)-1-[2-[[3-(2,6-dioxo-3-piperidyl)-1-methyl-indazol-7-yl]amino]-2-oxo-ethyl]-3-piperidyl]butoxy]-2-methyl-phenyl]pyridine-2-carboxylic acid] | – | B (50% ≤ Ymin < 70%) | – | < 100 |
